The values below come from ChEMBL document CHEMBL1201862, “PubChem BioAssay data set” (2004).

Assay [1] in a line: cytotoxicity in HPDE-C7 cells, cell-based, fluorescence, HTS (AID 430). The class given is functional. To be noted: Homo sapiens.
A short description of assay [2]: inhibitors of intracellular T. cruzi replication, confirmation, NIH3T3 host cells, beta-gal luminescence (AID 2044).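 Further: intracellular parasites grown in NIH/3T3 mouse fibroblasts as host cells; luminescent beta-galactosidase reporter signal from transgenic T. cruzi replicating inside host cells; inhibitors lower the luminescence signal.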 The class given is functional, cell-based.
Assay [3] in a line: cytotoxicity in KRAS-transformed pancreatic duct cells, primary screen, cell-based, fluorescence, HTS (AID 431). The class given is functional. To be noted: Homo sapiens.
Assay [4] can be described thus: cytotoxicity toward NIH3T3 fibroblasts, dose response, counter-screen, cell-based, ATP luminescence, mouse fibroblasts (AID 2010).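 Further: cells exposed to compound for about 90 hours before reading.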 Format: functional. Particulars: NIH3T3.
The target in assay [5] is T1, DNA repair protein RAD52 homolog (Homo sapiens, UniProt P43351).
T1 sequence (P43351 whole entry): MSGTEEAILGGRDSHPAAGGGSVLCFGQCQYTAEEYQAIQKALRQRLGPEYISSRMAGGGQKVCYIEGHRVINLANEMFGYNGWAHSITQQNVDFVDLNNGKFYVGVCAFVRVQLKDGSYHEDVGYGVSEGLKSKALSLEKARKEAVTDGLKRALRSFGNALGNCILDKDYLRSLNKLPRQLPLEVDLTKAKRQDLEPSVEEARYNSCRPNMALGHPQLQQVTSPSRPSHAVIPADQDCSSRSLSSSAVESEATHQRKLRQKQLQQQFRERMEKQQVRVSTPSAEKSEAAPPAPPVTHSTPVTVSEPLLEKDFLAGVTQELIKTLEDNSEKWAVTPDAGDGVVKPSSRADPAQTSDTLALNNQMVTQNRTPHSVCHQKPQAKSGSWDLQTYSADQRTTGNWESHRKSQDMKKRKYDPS
The class given is functional, biochemical.

The target in assay [6] is T2, Mannose-6-phosphate isomerase (Homo sapiens, UniProt P34949).
T2 sequence (P34949 whole entry): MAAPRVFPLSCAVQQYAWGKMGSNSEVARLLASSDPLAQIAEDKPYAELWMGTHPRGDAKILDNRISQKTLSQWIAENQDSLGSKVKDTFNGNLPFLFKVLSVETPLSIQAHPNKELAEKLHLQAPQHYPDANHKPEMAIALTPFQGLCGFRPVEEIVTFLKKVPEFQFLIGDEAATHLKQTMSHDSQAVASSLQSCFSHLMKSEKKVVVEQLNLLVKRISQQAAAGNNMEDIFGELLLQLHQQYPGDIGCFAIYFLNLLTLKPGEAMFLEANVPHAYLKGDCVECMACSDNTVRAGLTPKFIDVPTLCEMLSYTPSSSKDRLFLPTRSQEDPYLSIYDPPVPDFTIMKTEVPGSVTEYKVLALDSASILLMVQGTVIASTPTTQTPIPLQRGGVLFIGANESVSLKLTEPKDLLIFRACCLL
Put plainly: inhibitors of human PMI, primary screen, biochemical, fluorescence intensity, coupled assay (AID 1209).

Assay [7] has as its target T2, Mannose-6-phosphate isomerase. Description: human PMI inhibitors, high substrate, primary screen, biochemical, fluorescence intensity, high mannose 6-phosphate (AID 1220).
In the next assay the target is T3, Aminopeptidase N (Plasmodium falciparum FcB1/Columbia, UniProt O96935).
T3 sequence (O96935 whole entry): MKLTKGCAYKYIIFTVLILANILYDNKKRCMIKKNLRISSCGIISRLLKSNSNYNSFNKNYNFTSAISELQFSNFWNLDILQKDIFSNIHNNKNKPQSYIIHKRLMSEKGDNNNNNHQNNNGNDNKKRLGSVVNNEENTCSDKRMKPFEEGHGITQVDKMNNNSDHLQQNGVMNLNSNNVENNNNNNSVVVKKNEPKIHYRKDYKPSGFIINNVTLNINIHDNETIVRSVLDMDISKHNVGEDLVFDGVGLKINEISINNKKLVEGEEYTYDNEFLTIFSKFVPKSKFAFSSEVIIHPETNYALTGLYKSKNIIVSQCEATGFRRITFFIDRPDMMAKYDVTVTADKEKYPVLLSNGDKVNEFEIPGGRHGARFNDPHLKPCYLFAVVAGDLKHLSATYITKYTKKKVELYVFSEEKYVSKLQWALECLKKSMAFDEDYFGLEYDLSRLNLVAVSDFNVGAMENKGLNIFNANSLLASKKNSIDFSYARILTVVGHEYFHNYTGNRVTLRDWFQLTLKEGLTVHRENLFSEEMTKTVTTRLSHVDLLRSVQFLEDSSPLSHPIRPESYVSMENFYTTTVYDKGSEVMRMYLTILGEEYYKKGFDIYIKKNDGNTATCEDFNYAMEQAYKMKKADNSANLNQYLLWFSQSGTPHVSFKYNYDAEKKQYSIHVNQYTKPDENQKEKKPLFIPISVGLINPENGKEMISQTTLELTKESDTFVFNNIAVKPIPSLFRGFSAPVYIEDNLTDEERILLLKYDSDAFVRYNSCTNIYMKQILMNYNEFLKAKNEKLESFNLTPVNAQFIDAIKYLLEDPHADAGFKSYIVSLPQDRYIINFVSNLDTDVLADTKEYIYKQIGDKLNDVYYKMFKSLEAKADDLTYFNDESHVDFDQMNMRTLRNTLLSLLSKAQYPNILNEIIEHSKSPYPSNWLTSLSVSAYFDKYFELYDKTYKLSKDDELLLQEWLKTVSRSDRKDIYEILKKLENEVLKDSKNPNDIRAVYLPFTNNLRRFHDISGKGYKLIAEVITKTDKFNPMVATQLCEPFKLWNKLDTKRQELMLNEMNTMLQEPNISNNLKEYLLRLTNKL
Put plainly: P. falciparum M1AAP inhibitors, biochemical, fluorogenic H-Leu-NHMec substrate, 1536-well (AID 1445). Also noted: species or system Plasmodium falciparum 3D7, 3D7.

Assay [8] can be described thus: THP-1 cell cytotoxicity, dose response, cytotoxicity control for Vif-APOBEC3G degradation inhibitor project, THP-1 cells (AID 1117359). The class given is functional. To be noted: Human immunodeficiency virus 1, THP-1.
A further assay has as its target T4, NADPH oxidase 1 (Homo sapiens, UniProt Q9Y5S8).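 Further: Cell-based assay with luminescence read-out, IC50 derived from inhibitor dose-response curves; intracellular ROS from endogenous NOX1 in intact HT29 colon cancer cells; potency of inhibitors that lower the ROS luminescence signal.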
T4 sequence (Q9Y5S8 whole entry): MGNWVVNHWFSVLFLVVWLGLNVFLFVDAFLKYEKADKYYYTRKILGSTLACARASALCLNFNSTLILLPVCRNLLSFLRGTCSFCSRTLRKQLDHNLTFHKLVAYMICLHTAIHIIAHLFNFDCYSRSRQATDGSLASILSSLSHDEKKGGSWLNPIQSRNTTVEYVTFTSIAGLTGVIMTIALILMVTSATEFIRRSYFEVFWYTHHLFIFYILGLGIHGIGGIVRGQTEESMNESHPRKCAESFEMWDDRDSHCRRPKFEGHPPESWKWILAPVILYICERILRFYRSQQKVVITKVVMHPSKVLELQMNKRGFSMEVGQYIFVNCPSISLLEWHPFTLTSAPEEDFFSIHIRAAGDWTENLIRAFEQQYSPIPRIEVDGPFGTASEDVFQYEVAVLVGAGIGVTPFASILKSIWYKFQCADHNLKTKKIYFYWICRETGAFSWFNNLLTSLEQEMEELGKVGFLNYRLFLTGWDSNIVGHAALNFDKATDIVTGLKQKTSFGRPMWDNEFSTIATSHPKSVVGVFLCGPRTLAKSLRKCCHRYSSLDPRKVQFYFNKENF
The class given is functional, cell-based.

Assay [9] relates to BJ. Description: cytotoxicity toward BJ-TERT fibroblasts, dose response, cell-based, RAS-independent, luminescence (AID 1933). The class given is functional. Particulars: Homo sapiens.
Assay [10] relates to BJ. Description: cells. Format: functional, cell-based. To be noted: Homo sapiens.
The test system of assay [11] is BJ. Put plainly: cytotoxicity toward BJ-TERT-LT-ST fibroblasts, dose response, cell-based, RAS-independent, luminescence (AID 1935).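 Further: BJ fibroblasts immortalized with TERT plus LT and ST oncogenes.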 Particulars: Homo sapiens. The class given is functional.
Assay [12] in a line: cytotoxicity toward DRD oncogenic fibroblasts, dose response, cell-based, non-viral oncogenic, luminescence (AID 1934). The class given is functional. To be noted: Homo sapiens.
Assay [13] deals with T5, Replicative DNA helicase DnaB (Mycobacterium tuberculosis, UniProt P9WMR3).
T5 sequence (P9WMR3 whole entry): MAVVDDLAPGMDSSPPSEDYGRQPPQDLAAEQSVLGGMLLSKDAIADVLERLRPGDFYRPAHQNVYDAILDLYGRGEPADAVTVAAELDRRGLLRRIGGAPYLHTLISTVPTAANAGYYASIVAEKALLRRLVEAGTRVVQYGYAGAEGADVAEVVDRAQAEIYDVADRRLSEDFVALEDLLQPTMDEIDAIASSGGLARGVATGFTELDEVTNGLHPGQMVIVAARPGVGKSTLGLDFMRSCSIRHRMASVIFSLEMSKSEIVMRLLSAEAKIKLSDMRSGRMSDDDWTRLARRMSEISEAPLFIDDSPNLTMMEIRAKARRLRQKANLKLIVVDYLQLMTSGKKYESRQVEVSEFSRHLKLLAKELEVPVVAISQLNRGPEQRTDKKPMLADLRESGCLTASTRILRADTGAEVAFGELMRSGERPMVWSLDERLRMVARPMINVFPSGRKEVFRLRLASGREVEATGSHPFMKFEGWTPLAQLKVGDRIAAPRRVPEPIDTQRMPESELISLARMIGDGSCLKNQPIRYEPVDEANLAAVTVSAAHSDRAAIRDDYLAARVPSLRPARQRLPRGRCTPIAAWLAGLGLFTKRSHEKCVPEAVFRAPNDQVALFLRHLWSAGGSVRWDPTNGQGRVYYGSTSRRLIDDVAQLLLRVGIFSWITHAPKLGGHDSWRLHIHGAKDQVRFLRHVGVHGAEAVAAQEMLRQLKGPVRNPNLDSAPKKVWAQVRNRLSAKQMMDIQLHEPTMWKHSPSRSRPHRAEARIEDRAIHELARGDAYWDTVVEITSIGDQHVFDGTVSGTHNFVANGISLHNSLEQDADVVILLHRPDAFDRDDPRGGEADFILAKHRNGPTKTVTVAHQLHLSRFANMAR
Put plainly: DnaB intein splicing inhibitors, dose response, biochemical, cell-free fluorescence (AID 449749). Format: functional.

The next assay concerns the target T6, Protein RecA (Mycobacterium tuberculosis, UniProt P9WHJ3).
T6 sequence (P9WHJ3 whole entry): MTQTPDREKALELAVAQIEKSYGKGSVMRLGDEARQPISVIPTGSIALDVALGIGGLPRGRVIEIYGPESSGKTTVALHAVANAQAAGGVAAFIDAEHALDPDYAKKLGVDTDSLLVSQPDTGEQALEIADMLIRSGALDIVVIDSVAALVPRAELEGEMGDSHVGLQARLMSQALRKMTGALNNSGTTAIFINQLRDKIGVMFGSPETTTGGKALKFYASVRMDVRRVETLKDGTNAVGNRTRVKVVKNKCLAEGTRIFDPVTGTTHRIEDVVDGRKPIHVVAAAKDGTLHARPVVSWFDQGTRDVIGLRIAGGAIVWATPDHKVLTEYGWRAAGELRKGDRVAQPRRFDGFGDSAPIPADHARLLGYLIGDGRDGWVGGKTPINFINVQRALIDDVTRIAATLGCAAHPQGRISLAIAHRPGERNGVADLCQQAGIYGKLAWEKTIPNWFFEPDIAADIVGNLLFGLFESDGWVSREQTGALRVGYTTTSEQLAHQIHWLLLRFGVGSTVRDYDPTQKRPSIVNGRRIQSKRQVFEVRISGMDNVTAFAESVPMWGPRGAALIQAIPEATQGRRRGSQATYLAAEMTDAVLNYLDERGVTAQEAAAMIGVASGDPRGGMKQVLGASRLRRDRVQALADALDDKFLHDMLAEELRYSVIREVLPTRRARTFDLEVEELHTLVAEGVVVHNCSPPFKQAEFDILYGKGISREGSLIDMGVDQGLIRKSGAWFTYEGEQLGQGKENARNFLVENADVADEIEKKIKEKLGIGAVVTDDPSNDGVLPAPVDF
Description: Fluorescence Cell-Free Homogeneous Dose Retest to Identify Inhibitors of RecA-Intein Splicing Activity. [Related pubchem assays (depositor defined):AID2097, AID2223, AID489010, AID492950]. Format: functional.

A short description of assay [14]: growth suppression of PTEN-null colon cells, dose response, cell-based, HCT116 PTEN knockout (AID 1047).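 Further: HCT116 colon tumor cells with PTEN knocked out; cells exposed to compound for 60 hours before readout; potency for loss of cell viability measured by luminescence.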 Format: functional.
Assay [15] is described as follows: growth suppression of beta-catenin-knockout colon cells, dose response, cell-based, HCT116, human colon tumor (AID 1045).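 Further: HCT116 colon tumor cells with beta catenin knocked out; cells exposed to compound for 60 hours.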 Format: functional.

Each structure is given as a SMILES string. The source made the active and inactive calls.

As for `Cc1cc2oc(=O)cc(CN3CCN(C/C=C/c4ccccc4)CC3)c2cc1O`, the EC50 in [1] is > 20 µM (not active); in assay [2] it was 0.102 µM (active); in assay [3], > 20 µM (not active); in assay [4] it was > 60 µM (not active).
With `COc1cc2nc(N(CCCN(C)C)C(=O)c3ccc(S(=O)(=O)N4CCc5ccccc54)cc3)sc2cc1OC`, the EC50 is < 0.1 µM (active) in [2], 16.4 µM (active) in assay [4] and 0.129 µM (active) in “cells”. In addition, the AC50 in assay [5] was 6.54 µM (active).
Consider `CN1C(=O)N(C)C(=O)C2(Cc3c(ccc4ccccc34)N(C)C2)C1=O`, for which the IC50 in assay [6] and in assay [7] was > 50 µM (not active) each time.
Consider `CCOC(=O)N1CCN(c2c(NCc3ccccc3Cl)c(=O)c2=O)CC1`, for which the IC50 at Aminopeptidase N was 69.3 µM (active). Further, the CC50 in [8] was 29.6 µM (active).
As for `CN(O)/C=N/C(=S)Nc1ccc(Cl)cc1Cl`, the IC50 in assay [6] is given as > 50 µM (not active).
For the molecule `Clc1ccc(-c2nc(-c3ccccc3)c(-c3ccccc3)[nH]2)cc1`, the IC50 at NADPH oxidase 1 was > 17 µM (not active).
On to `CCOC(=O)N1CCN(S(=O)(=O)c2ccc(C(=O)N(CCCN(C)C)c3nc4cc(OC)ccc4s3)cc2)CC1`, for which the EC50 in [2] was < 0.1 µM (active); in assay [4] it was > 30 µM (not active); in “cells” it was 0.03 µM (active).
Consider `CC(C)N(c1ccccc1)c1ccc(NC(=O)CCl)cc1`, for which the EC50 with BJ [9] is 0.344 µM (inconclusive); in the assay with BJ [10], 108 µM (active); in assay [2], < 0.1 µM (active); in assay [4] it was > 60 µM (not active); with BJ [11], > 150 µM (inconclusive); in assay [12] it was 1.37 µM (active). Further, the EC50 on Protein RecA is 0.505 µM (active); in the assay “cells” it was 0.102 µM (active). For the same molecule, in assay [13], the concentration at half-maximal activity (AC50) was 4.41 µM (active).
For `O=S(=O)(CCN(CCS(=O)(=O)C(F)(F)F)CC1CCCO1)C(F)(F)F` (stereo unspecified), the EC50 in assay [1] was 11.1 µM (active); in [3] it was 10.6 µM (active); in assay [14], 15.3 µM (active); in assay [15] it was 9.32 µM (active).
Consider `Fc1ccc(-c2nc(-c3ccccc3)c(-c3ccccc3)[nH]2)cc1`, for which the IC50 against NADPH oxidase 1 is on record as > 17 µM (not active).
